B1: recombinant IL4: recombinant cytokine IL4 (Peprotech), control (protein, UniProt P05112 25-153, looked up)
Interleukin-4: HKCDITLQEIIKTLNSLTEQKTLCTELTVTDIFAASKNTTEKETFCRAATVLRQFYSHHEKDTRCLGATAQQFHRHKQLIRFLKRLDRNLWGLAGLNSCPVKEANQSTLENFLERLKTIMREKYSKCSS

Legend:
CCR2 chemokine receptor = target: T1, CCR2 chemokine receptor (Homo sapiens, UniProt P41597); settings: cited from earlier work
T1 construct: endogenous in cells; host or cells: THP-1

[1] = tested on: non-polarized macrophages; assay: Macrophage polarization by qPCR, MYC-HCC conditioned medium with recombinant cytokines; assay type: cell-based, mouse; settings: recombinant cytokine added to cultured MYC-HCC cells
Description: FIG. 11. a. Quantification of migration of macrophages treated with MYC- or MYC/Twist1 -cells conditioned media. b. Expression of M1 marker genes in macrophages treated with conditioned media from MYC-HCC or MYC/Twist1-HCC. c. Spheroid co-culture assay of MYC/Twist1 -cells and macrophages after treatment with either CCL2 antibody or control antibody. F4/80 staining was performed to quantify number of spheroids with macrophage infiltration (*p<0.05). d. Experimental scheme- Conditioned medium of MYC-HCC cells treated with PBS or recombinant IL13 or CCL2 respectively was added to non-polarized macrophages for 48 hours. Macrophage polarization was assessed by qPCR for M2 markers (ARG1, […]) and M1 markers (IFNAR2, CCR2) (**p<0.005).
Quantitative Real-Time PCR: RNA was isolated using RNeasy plus mini kit according to the manufacturer’s instructions (Qiagen). cDNA was synthesized using SuperScript III (ThermoFisher). qPCR was performed using specific primers (Supplemental Table 1) and SYBR Green (Roche) in an Applied Biosystems Real Time PCR System (Life Technologies). Data were normalized to UBC. A minimum of 3 biological and 3 technical replicates were used for all qPCR experiments.

MYC-HCC = assay: Orthotopic MYC-HCC transplant in NSG mice treated with recombinant cytokines; assay type: in vivo, mouse; settings: for macrophage infiltration increase: IHC staining for F4/80; for metastases (FC): single cytokine vs control, 4 weeks
Description: FIG. 5 Both CCL2 and IL13 are required to promote Twist1-driven metastasis. a. Experimental scheme- Mice orthotopically transplanted with MYC-HCC cells were treated either with PBS or IL13 or CCL2 or CCL2+IL13 recombinant cytokines for 4 weeks. b. Representative histopathology of lung sections from MYC-HCC bearing mice treated with PBS or CCL2+IL13. c. Histopathology of liver ([…]) of MYC-HCC bearing mice treated with PBS or CCL2 or IL13 or CCL2+IL13 and IHC for F4/80 and MYC expression in each group. d. Quantification of number of metastatic nodules in the liver control treated or recombinant cytokine treated MYC-HCC bearing mice. (**p<0.01). e. Quantification of macrophage infiltration in liver by IHC staining for F4/80 of MYC-HCC bearing mice liver treated with PBS or CCL2 or IL13 or CCL2+IL13. f. Histopathology of lung (1X and 20X) of MYC-HCC bearing mice treated with PBS or CCL2 or IL13 or CCL2+IL13 and IHC for F4/80 and MYC expression in each group. g. Quantification of number of metastatic nodules in the lung of control treated or recombinant cytokine treated MYC-HCC bearing mice. (**p<0.01). h. Quantification of macrophage infiltration in lung by IHC staining for F4/80 of MYC-HCC bearing mice liver treated with PBS or CCL2 or IL13 or CCL2+IL13.
Orthotopic transplantation assay: An orthotopic mouse model was established by transplanting mouse MYC- or MYC/Twist1-HCC tumors (1 mm^3) under the liver capsule of NOD/Scid/Gamma (NSG) recipient mice. Bioluminescent (BLI) and MRI scans monitoring are used to monitor tumor engraftment and growth. Mice are euthanized once predetermined specific endpoints are met or based on morbidity whichever occurs first.
in vivo treatment mouse models: For antibody treatment, mice were injected i.p. with isotype control IgG or anti-CCL2 (BioXcell), -IL13 and -IL4 (Genentech) antibody (10 mg/kg body weight three times per week). For recombinant cytokines treatment, mice were injected i.p. three times per week with PBS or CCL2 (Peprotech, 500 ng/mouse), IL13 and IL4 (Peprotech, 250 ng/mouse). For clodronate liposomes (CL) treatment, CL or control liposomes were administered i.p. at 6.5 µl/g body weight 3 times per week to NSGs mice. CL and control treatments were administered to NSG mice previously injected i.v. with 0.5×10^6 MYC/twist1-HCC cells or orthotopically transplanted with MYC/Twist1-HCC tumors. Experimental and control mice were killed 4 weeks after tumor were transplanted. Primary tumors and lung metastases were collected for H&E staining and IHC.

T1 sequence (P41597 whole entry): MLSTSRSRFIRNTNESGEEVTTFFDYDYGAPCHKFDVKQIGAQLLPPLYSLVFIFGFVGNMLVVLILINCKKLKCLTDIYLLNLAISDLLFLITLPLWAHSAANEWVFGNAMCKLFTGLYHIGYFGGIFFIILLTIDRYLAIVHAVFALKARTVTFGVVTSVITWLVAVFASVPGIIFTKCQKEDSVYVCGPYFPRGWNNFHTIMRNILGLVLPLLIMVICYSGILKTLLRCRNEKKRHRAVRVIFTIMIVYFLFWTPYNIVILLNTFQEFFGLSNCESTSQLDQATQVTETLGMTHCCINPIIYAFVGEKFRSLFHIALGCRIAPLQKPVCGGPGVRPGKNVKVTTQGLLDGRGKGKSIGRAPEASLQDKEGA

Molecule | IC50 (CCR2 chemokine receptor; THP-1 cell line, pre-clinical studies, read-out: IC50, inhibition of MCP-1 induced calcium mobilization and chemotaxis) [nM] | selectivity for CCR2 (CCR2 chemokine receptor) [fold] | M2 marker expression [1] | macrophage infiltration increase (MYC-HCC) | metastases (FC) (MYC-HCC) | effect on metastasis (MYC-HCC; mouse, in vivo)
CC(C)(C)N1CCN[C@@H](C(=O)N2CCN(C(=O)Nc3ccc(Cl)c(F)c3)CC2)C1 [AZD2423] | 4 | > 500 | – | – | – | –
CCL2: recombinant cytokine CCL2 (Peprotech) | – | – | not | 1.8 fold | 3 | –
IL13: recombinant cytokine IL13 (Peprotech) | – | – | increased M2 marker expression | did not increase macrophage infiltration | 1 | –
B1 | – | – | – | did not elicit macrophage recruitment | – | did not elicit macrophage recruitment or increase metastasis
